According to PubChem BioAssay AID1963833 (Molecular Pharmacology Branch, DTP, NCI, 2024):
pIC50: −log10 of the molar value.

Tested on: 883617-216-R-J1-PDC complex spheroid viability
Test: Anticancer human tumor 883617-216-R-J1-PDC patient-derived bladder carcinoma cell line growth inhibition [POLQ]
Conditions: for pIC50: curve of first compound; for viability, T/C: stronger effect = lower value
Method in brief: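 Growth inhibition in 3D: complex spheroids (tumor PDC, HUVEC, MSC) treated with POLQ inhibitor combinations; where Cmax unknown, highest tested concentration 10 microM, except SN-38 at 1 microM.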
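Further: spheroids exposed to compounds for seven days before readout.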
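Wherever viability, T/C is given: 100% = DMSO vehicle control viability.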

`CC1COCCN1c1cc(C2(O)CC3CCC(C2)O3)c2cnn(-c3ccn[nH]3)c2n1` (centres undefined) + Cc1cccc(N(C)C(=O)C2C(O)CCN2c2nc(C)cc(C(F)(F)F)c2C#N)c1 gave a pIC50 (second compound 0.0316 µM) of 6.81, a pIC50 (second compound 0.1 µM) of 6.76 and a pIC50 (second compound 0.316 µM) of 6.73. The pIC50 (second compound 1 µM) was 6.90, the pIC50 (second compound 3.16 µM) was 6.76 and the pIC50 (second compound 10 µM) was 6.67. It also gave a viability, T/C (second compound 0.0316 µM, first compound 0.0316 µM) of 76.6%, a viability, T/C (second compound 0.0316 µM, first compound 0.1 µM) of 58.4% and a viability, T/C (second compound 0.0316 µM, first compound 0.316 µM) of 35.7%. It also gave a viability, T/C (second compound 0.0316 µM, first compound 1 µM) of 33.7%, a viability, T/C (second compound 0.0316 µM, first compound 3.16 µM) of 23.9% and a viability, T/C (second compound 0.0316 µM, first compound 10 µM) of 23.9%. For the same molecule, the viability, T/C (second compound 0.1 µM, first compound 0.0316 µM) was 80.4%, the viability, T/C (second compound 0.1 µM, first compound 0.1 µM) was 54.9% and the viability, T/C (second compound 0.1 µM, first compound 0.316 µM) was 41.2%. It also gave a viability, T/C (second compound 0.1 µM, first compound 1 µM) of 37.9%, a viability, T/C (second compound 0.1 µM, first compound 3.16 µM) of 26.8% and a viability, T/C (second compound 0.1 µM, first compound 10 µM) of 23.2%. It also gave a viability, T/C (second compound 0.316 µM, first compound 0.0316 µM) of 71%, a viability, T/C (second compound 0.316 µM, first compound 0.1 µM) of 61.2% and a viability, T/C (second compound 0.316 µM, first compound 0.316 µM) of 38.6%. It also gave a viability, T/C (second compound 0.316 µM, first compound 1 µM) of 35.8%, a viability, T/C (second compound 0.316 µM, first compound 3.16 µM) of 24.2% and a viability, T/C (second compound 0.316 µM, first compound 10 µM) of 24%. It also gave a viability, T/C (second compound 1 µM, first compound 0.0316 µM) of 78.6%, a viability, T/C (second compound 1 µM, first compound 0.1 µM) of 48.8% and a viability, T/C (second compound 1 µM, first compound 0.316 µM) of 41.7%. It also gave a viability, T/C (second compound 1 µM, first compound 1 µM) of 33%, a viability, T/C (second compound 1 µM, first compound 3.16 µM) of 27.9% and a viability, T/C (second compound 1 µM, first compound 10 µM) of 23.2%. It also gave a viability, T/C (second compound 3.16 µM, first compound 0.0316 µM) of 79.3%, a viability, T/C (second compound 3.16 µM, first compound 0.1 µM) of 54.9% and a viability, T/C (second compound 3.16 µM, first compound 0.316 µM) of 44.9%. For the same molecule, the viability, T/C (second compound 3.16 µM, first compound 1 µM) was 31.6%, the viability, T/C (second compound 3.16 µM, first compound 3.16 µM) was 26.4% and the viability, T/C (second compound 3.16 µM, first compound 10 µM) was 23.4%. It also gave a viability, T/C (second compound 10 µM, first compound 0.0316 µM) of 81.5%, a viability, T/C (second compound 10 µM, first compound 0.1 µM) of 60.3% and a viability, T/C (second compound 10 µM, first compound 0.316 µM) of 39.3%. The viability, T/C (second compound 10 µM, first compound 1 µM) was 42.4%, the viability, T/C (second compound 10 µM, first compound 3.16 µM) was 31.4% and the viability, T/C (second compound 10 µM, first compound 10 µM) was 23.9%.

Work on `CC(=O)O[C@H]1C(=O)[C@@]2(C)[C@H]([C@H](OC(=O)c3ccccc3)[C@]3(O)C[C@H](OC(=O)[C@H](O)[C@@H](NC(=O)c4ccccc4)c4ccccc4)C(C)=C1C3(C)C)[C@]1(OC(C)=O)CO[C@@H]1C[C@@H]2O` + Nc1ccc(C#CCN(C(=O)Cc2ncc(C(F)(F)F)cc2C(F)(F)F)c2ccc(F)cc2)nn1 yielded a pIC50 (second compound 0.0316 µM) of 7.92, a pIC50 (second compound 0.1 µM) of 7.98 and a pIC50 (second compound 0.316 µM) of over 8.02. It also gave a pIC50 (second compound 1 µM) of over 8.02, a pIC50 (second compound 3.16 µM) of 7.98 and a pIC50 (second compound 10 µM) of 7.94. For the same molecule, the viability, T/C (second compound 0.0316 µM, first compound 0.00949 µM) was 54.8%, the viability, T/C (second compound 0.0316 µM, first compound 0.03 µM) was 30.9% and the viability, T/C (second compound 0.0316 µM, first compound 0.0949 µM) was 24.9%. For the same molecule, the viability, T/C (second compound 0.0316 µM, first compound 0.3 µM) was 22.9%, the viability, T/C (second compound 0.0316 µM, first compound 0.949 µM) was 25.1% and the viability, T/C (second compound 0.0316 µM, first compound 3 µM) was 22.2%. The viability, T/C (second compound 0.1 µM, first compound 0.00949 µM) was 52.2%, the viability, T/C (second compound 0.1 µM, first compound 0.03 µM) was 27.6% and the viability, T/C (second compound 0.1 µM, first compound 0.0949 µM) was 31.1%. For the same molecule, the viability, T/C (second compound 0.1 µM, first compound 0.3 µM) was 17.8%, the viability, T/C (second compound 0.1 µM, first compound 0.949 µM) was 18.7% and the viability, T/C (second compound 0.1 µM, first compound 3 µM) was 24.2%. The viability, T/C (second compound 0.316 µM, first compound 0.00949 µM) was 51.6%, the viability, T/C (second compound 0.316 µM, first compound 0.03 µM) was 31.1% and the viability, T/C (second compound 0.316 µM, first compound 0.0949 µM) was 21.7%. The viability, T/C (second compound 0.316 µM, first compound 0.3 µM) was 24.8%, the viability, T/C (second compound 0.316 µM, first compound 0.949 µM) was 34.9% and the viability, T/C (second compound 0.316 µM, first compound 3 µM) was 36%. For the same molecule, the viability, T/C (second compound 1 µM, first compound 0.00949 µM) was 49.1%, the viability, T/C (second compound 1 µM, first compound 0.03 µM) was 26.9% and the viability, T/C (second compound 1 µM, first compound 0.0949 µM) was 23.5%. For the same molecule, the viability, T/C (second compound 1 µM, first compound 0.3 µM) was 20%, the viability, T/C (second compound 1 µM, first compound 0.949 µM) was 23% and the viability, T/C (second compound 1 µM, first compound 3 µM) was 31.8%. It also gave a viability, T/C (second compound 3.16 µM, first compound 0.00949 µM) of 50.5%, a viability, T/C (second compound 3.16 µM, first compound 0.03 µM) of 43.2% and a viability, T/C (second compound 3.16 µM, first compound 0.0949 µM) of 27.8%. It also gave a viability, T/C (second compound 3.16 µM, first compound 0.3 µM) of 28%, a viability, T/C (second compound 3.16 µM, first compound 0.949 µM) of 20.7% and a viability, T/C (second compound 3.16 µM, first compound 3 µM) of 23.5%. The viability, T/C (second compound 10 µM, first compound 0.00949 µM) was 53.8%, the viability, T/C (second compound 10 µM, first compound 0.03 µM) was 31.9% and the viability, T/C (second compound 10 µM, first compound 0.0949 µM) was 27.2%. The viability, T/C (second compound 10 µM, first compound 0.3 µM) was 26.5%, the viability, T/C (second compound 10 µM, first compound 0.949 µM) was 28% and the viability, T/C (second compound 10 µM, first compound 3 µM) was 24.6%.
